Where a SMILES comes first, the peptide text is derived from it. [ ]: non-standard residue; d: D form. The star is where a group is joined. Sta = CC(C)C[C@H](N)[C@@H](O)CC(=O)O; Isovaleryl = CC(C)CC(=O)*

The target in the assay is T1, Pepsin (Bos taurus, UniProt P00792).
T1 construct: from tissue; host or cells: bovine pancreas (so in the source)
The assay is described as follows: Inhibition against pepsin (hemoglobin degradation, UV absorption at 280 nm). Type of assay: biochemical, Bovine. To be noted: substrate 2.0% hemoglobin in 0.06N-hydrochloric acid, 35° C., 10 minutes; read-out: IC50 (concentration of the compound required to achieve 50% inhibition).

T1 sequence (P00792 43-372): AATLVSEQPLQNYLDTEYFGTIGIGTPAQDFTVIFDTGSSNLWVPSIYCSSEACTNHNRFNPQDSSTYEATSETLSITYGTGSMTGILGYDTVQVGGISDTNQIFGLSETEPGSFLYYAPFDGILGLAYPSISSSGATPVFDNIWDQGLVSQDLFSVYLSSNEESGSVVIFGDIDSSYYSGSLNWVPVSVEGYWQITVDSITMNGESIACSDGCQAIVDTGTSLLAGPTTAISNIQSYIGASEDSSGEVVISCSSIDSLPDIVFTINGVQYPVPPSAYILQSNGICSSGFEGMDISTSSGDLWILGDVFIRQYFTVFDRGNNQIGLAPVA
Procedure: (a) Inhibition against Pepsin from Bovine Pancreas
To this mixture was added (150-a) μl of 0.06N-hydrochloric acid to adjust the pH value of the mixture to 3 to 5. Each of the solutions was then mixed with a substrate solution to start the reaction. The substrate for the reaction comprised 2.0% hemoglobin in 800 μl of 0.06N-hydrochloric acid and the reaction was conducted at 35° C. for 10 minutes, the total volume of the reaction mixture being 1 ml. 3 ml of 5% trichloroacetic acid was then added to the reaction mixture to terminate the reaction. After the precipitates formed had been filtered off, the amount of protein in the trichloroacetic acid fraction which contained the components of hemoglobin hydrolyzed with pepsin was measured from the value of ultraviolet absorption at 280 nm.

As to `CC(C)CC(=O)N[C@H](C(=O)N[C@H](C(=O)N[C@@H](CC(C)C)[C@@H](O)CC(=O)N[C@@H](C)C(=O)N[C@@H](CC(C)C)[C@@H](O)CC(=O)O)C(C)C)C(C)C` [Pepstatin] (Isovaleryl-VV[Sta]A[Sta]-OH), the IC50 was found to be 18.3 nM.

The values above are taken from patent publication US5087614A, “Enzyme inhibitor and method of producing the same” (Suntory Limited, priority 1987, dated 1992).
